Results from ChEMBL document CHEMBL1149941, “The design and synthesis of novel hydroxyproline inhibitors of HIV-1 proteinase” (Bioorg Med Chem Lett, 1993).

Each compound was assayed against Human immunodeficiency virus type 1 protease (Human immunodeficiency virus 1, UniProt Q72874) (assay: Inhibitory activity against HIV-1 proteinase).

How did the IC50 turn out when `CC(C)CN1CC(O)(CNC(=O)[C@H]2N[C@@H]([C@H](NC(=O)Cc3ccccc3)C(=O)NCc3ccccc3)SC2(C)C)C[C@H]1C(=O)NC(C)(C)C` (stereo not given in full) was run?
Its IC50 is 0.07 µM.

`CC(C)CN1CC(O)(CNC(=O)[C@@H]2N[C@@H]([C@H](NC(=O)Cc3ccccc3)C(=O)NCc3ccccc3)SC2(C)C)C[C@H]1C(=O)NC(C)(C)C` (stereo not given in full) was tested. Which IC50 did it give?
The IC50 was 0.03 µM.

With `CC(C)CN1C[C@](O)([C@H](CC2CCCCC2)NC(=O)CC(C)(C)C)C[C@H]1C(=O)NC(C)(C)C` as the compound, how does the IC50 read?
Its IC50 is 9 µM.

For `CC(C)CN1CC(O)(CNC(=O)OC(C)(C)C)C[C@@H]1C(=O)NC(C)(C)C` (stereo not given in full), which IC50 is on record?
Its IC50 is greater than 90 µM.

For `CC(C)CN1CC(O)(CNC(=O)OC(C)(C)C)C[C@H]1C(=O)NC(C)(C)C` (stereo not given in full), which IC50 is on record?
Its IC50 is greater than 90 µM.
